Publication PMC12495443, “Developing inhibitors of the guanosine triphosphate hydrolysis accelerating activity of Regulator of G protein Signaling-14 [drawing 1]” (The Journal of Biological Chemistry, 2025)
pIC50: −log10 of the molar value.

Molecular target: T1, cysteine-less RGS12 RGS-box protein (Homo sapiens, UniProt O14924, C701S/C748S/C775S/C831S)
T1 construct: human RGS12 RGS-box (aa 695–843 of UniProt O14924); host or cells: E. coli
T1 sequence (O14924 695-843 C701S/C748S/C775S/C831S): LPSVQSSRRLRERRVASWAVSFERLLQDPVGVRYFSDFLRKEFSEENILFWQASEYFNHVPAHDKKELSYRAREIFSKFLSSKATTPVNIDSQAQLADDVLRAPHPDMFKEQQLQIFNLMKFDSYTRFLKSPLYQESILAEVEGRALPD
Test: Transcreener GDP RGScreen assay with cysteine-less RGS12 RGS-box
Format: biochemical
Details: range given jointly for cysteine-less RGS14 and RGS12 proteins; read-out: estimated IC50, cysteine-less RGS12 RGS-box
Source text: Given the earlier experience with screening hit CCG-4986 being a covalent modifier of RGS4 cysteine residues ([35]), we sought to exclude protein-thiol reactivity as a potential mechanism of action of the active compounds derived from the AtomNet virtual screening effort ([55]) and SAR campaign follow-ups. To address this possibility and screen out thiol-reactive hits, cysteine-lacking versions of recombinant proteins spanning the RGS-boxes of RGS14 and RGS12 were purified from E. coli cultures.
Reagents and protocols for the fluorescence anisotropy-based Transcreener GDP RGScreen assay using a rate-altered, double point-mutant, recombinant Gαi1 protein have been extensively described previously ([43], [44]); reactions were always performed so that total GTP converted over the time course was consistently less than 10% of reaction maximum input. […] Open-reading frames (ORFs) encoding wild-type versions of the human RGS14 RGS-box (aa 46–195 of UniProt O43566) and human RGS12 RGS-box (aa 695–843 of UniProt O14924) were each sub-cloned in-frame with an N-terminal hexahistidine (His6) expression tag in the plasmid pET30a, expressed in E. coli cultures, and then purified by nickel-nitriloacetate (Ni-NTA) and size-exclusion (Superdex 200) column chromatographies by GenScript using previously described methods ([35]). […]

Work on `COc1ccc(OCc2nnc3n2N=C(c2ccc(OC)c(OC)c2)CS3)cc1` [Z55660043, 6-(3,4-dimethoxyphenyl)-3-[(4-methoxy-phenoxy)methyl]-5H-[1,2,4]triazolo[3,4-b][1,3,4]thiadiazine] yielded a pIC50 of 4.72 to 5.00.
